Reference: publication PMC6881066, “Non-sedating benzodiazepines cause paralysis and tissue damage in the parasitic blood fluke Schistosoma mansoni” (PLoS Neglected Tropical Diseases, 2019)
Entries after “also recorded” stand apart in the source; their conditions may differ. Read-outs that look alike come from different tables or passages of the source.

Columns and labels:
adult male S. mansoni [1] = assay: Adult schistosome mobility assay (inhibition of movement); format: cell-based, Schistosoma mansoni; settings: for IC50: Schistosoma mansoni, adult male worms cultured in compound overnight, movement relative to DMSO control; for Potency at evoking coiled, contractile paralysis / activity against parasites (in words): in vitro, concentration-response, Fig 2B & 2C
adult male S. mansoni [2] = assay: In vitro screen / re-screen for coiled, contractile (curl) phenotype; format: cell-based, Schistosoma mansoni; settings: for Worms showing curl phenotype: overnight
[3] = biological target: mammalian GABAARs (central benzodiazepine binding site); assay: [3H]flunitrazepam displacement binding assay, rat cerebral cortex membranes; settings: rat brain membrane preparations, 0.4 nM radioligand, 60 min at 4°C
Protocol: Binding assays for benzodiazepines against mammalian GABAARs were performed measuring displacement of [3H] flunitrazepam (0.4 nM) from crude brain membrane preparations. Rat cerebral cortex membrane homogenate (80 μg protein) was incubated with 0.4 nM [3H]-flunitrazepam in 50 mM Tris-HCl (pH 7.7), plus test compounds (screened at concentrations ranging from 0.1 nM to 10 μM), and non-specific binding was assessed by incubation with diazepam (3 μM). Following incubation for 60 min at 4°C, samples were vacuum filtered through glass fiber filters (GF/B, Packard) presoaked with 0.3% PEI and rinsed with ice-cold 50 mM Tris-HCl (Unifilter, Packard). Filters were dried and counted for radioactivity in a scintillation counter (Topcount, Packard). Ki values of test compounds were calculated by the Cheng-Prusoff equation.

S. mansoni = assay: Recovery of worm movement following drug washout; format: cell-based, Schistosoma mansoni; settings: 14 hours treatment, recovery 3 hours, 1 day after washout
Protocol: Female Swiss Webster mice infected with S. mansoni cercariae (NMRI strain) were sacrificed 49 days post infection by CO2 euthanasia. Adult schistosomes were recovered by dissection of the mesenteric vasculature. Harvested schistosomes were washed in DMEM (ThermoFisher cat. # 11995123) supplemented with HEPES (25mM), 5% v/v heat inactivated FCS (Sigma Aldrich cat. # 12133C) and Penicillin-Streptomycin (100 units/mL). Worms were cultured in 6 well dishes (4–5 male worms in 3mL media per well) in the presence of various test compounds or DMSO vehicle control overnight (37°C / 5% CO2). Worms were imaged the next day to record movement phenotypes using a Zeiss Discovery v20 stereomicroscope and a QiCAM 12-bit cooled color CCD camera controlled by Metamorph imaging software (version 7.8.1.0). 1 minute recordings were acquired at 4 frames per second and saved as a .TIFF stack, which was imported into ImageJ for analysis. An outline of the workflow used to quantify movement from these video recordings is shown in S1 Fig. Maximum intensity projections were generated for the entire stack of images (241 frames for a 1-minute recording) and integrated pixel values were measured for the resulting composite image, allowing normalization of movement relative to DMSO control treated worms. Inhibition of movement IC50 values were calculated using GraphPad Prism v8.1.1 and are expressed ± 95% confidence intervals. Data represents mean ± standard error for ≥3 independent experiments. Significance (*) was determined by unpaired t-test at a threshold of 0.05.
(§1) Fig 4 Xhe-II-048 damages the schistosome tegument. (A) Transmission electron microscopy images of transverse sections of S. mansoni exposed to either DMSO control, MCLZ (5 μM) or various imidazobenzodiazepines (10 μM, 14 hours). Dorsal tegument is oriented to the top. Scale = 2 μm. Arrowed = vacuoles beneath the tegument apical membrane. (B) Movement of worms treated with DMSO, MCLZ, or TMS-acetylene imidazobenzodiazepine compounds (10 μM, 14 hours), and recovery at various timepoints (3 hours, 1 day) following drug washout.

S. mansoni tegument = assay: Transmission electron microscopy of drug-treated worms (tegument damage); format: cell-based, Schistosoma mansoni
Protocol: Adult worms were harvested and recovered as above. Fixation was carried out overnight at 4°C in 2.5% glutaraldehyde/2% paraformaldehyde in 0.1 M sodium cacodylate (pH 7.3). Worms were washed 3 × 10 minutes in 0.1 M sodium cacodylate and post-fixed for 2 hours on ice in reduced 1% osmium tetraoxide. Worms were then washed 2 × 10 minutes in distilled water and stained overnight at 4°C in alcoholic Uranyl Acetate. Worms were rinsed in distilled water, dehydrated in 50%, 75% and 95% MeOH, followed by successive 10 minute rinses in 100% MeOH and acetonitrile. Worms were incubated in a 1:1 mix of acetonitrile and epoxy resin for 1 hour prior to 2 × 1 hour incubations in epoxy resin. Worms were then cut transversely and embedded overnight in epoxy resin (60°C). Ultra-thin sections (70 nm) were cut onto bare 200-mesh copper grids and stained in aqueous lead citrate for 1 minute. Sections were imaged on a Hitachi H-600 electron microscope fitted with a Hamamatsu C4742-95 digital camera) operating at an accelerating voltage of 75 kV.
Given the parasite-selectivity of imidazobenzodiazepines (Fig 3, blue) relative to MCLZ-like compounds (Fig 3, red), we investigated the effects of XliHeII-048, Xhe-II-048 and SH-I-055 on schistosome tissues in more detail. Specifically, we were interested in drug-evoked damage to the parasite tegument, which is a feature of many anti-schistosomal compounds [38]. Worms treated with DMSO vehicle control, MCLZ (5 μM) or various imidazobenzodiazepines (10 μM, based on effective concentrations determined in Fig 2) overnight were fixed and processed for imaging by transmission electron microcopy (TEM).
as §1

schistosomes = test system: schistosomes; set-up: method as in PMID 380021; settings: human clinical trials; cited from earlier work
[4] = cited from earlier work
SmGluCl = test system: SmGluCl; set-up: method as in PMID 24009509; settings: cited from earlier work
[5] = human clinical trials; cited from earlier work
S. japonicum = settings: no reference given; cited from earlier work
schistosomiasis = test system: schistosomiasis; set-up: method as in PMID 21695161, PMID 28619227; settings: PZQ treatment; cited from earlier work
[6] = inactive compounds tested at concentrations as high as 50 μM

O=C1CN=C(c2ccccc2)c2cc([N+](=O)[O-])ccc2N1 [nitrazepam, reference compound]
IC50 (adult male S. mansoni [1]; [6]): > 50 µM
Potency at evoking coiled, contractile paralysis / activity against parasites (in words) (adult male S. mansoni [1]): inactive against parasites

CCOC(=O)c1ncn2c1[C@H](C)N=C(c1ccccc1F)c1cc(C3CC3)ccc1-2 [GL-I-78]
Worms showing curl phenotype (adult male S. mansoni [2]; 10 micromolar): Inactive (0/8 curl) at 10 micromolar
Potency at evoking coiled, contractile paralysis / activity against parasites (in words) (adult male S. mansoni [1]): dramatically decreased affinity

Cc1ncoc1-c1ncn2c1CN=C(c1ccccc1)c1cc(Br)ccc1-2 [KRM-III-66]
Worms showing curl phenotype (adult male S. mansoni [2]; 10 micromolar): 6/8 curl at 10 micromolar

CCOC(=O)c1ncn2c1[C@@H](C)N=C(c1ccccc1F)c1cc(C#C[Si](C)(C)C)ccc1-2 [SH-I-060]
Potency at evoking coiled, contractile paralysis / activity against parasites (in words) (adult male S. mansoni [1]): marked decrease in potency; also recorded: essentially inactive

C[C@H]1N=C(c2ccccc2F)c2cc(Br)ccc2-n2cnc(-c3cnco3)c21 [GL-III-36]
Worms showing curl phenotype (adult male S. mansoni [2]; 10 micromolar): inactive (0/8 curling) at 10 micromolar

O=C1CN=C(c2ccccc2Cl)c2cc([N+](=O)[O-])ccc2N1 [CLZ, clonazepam, reference compound]
Decrease in potency relative to MCLZ (loss of C3 methyl group) (adult male S. mansoni [1]; Fig 3): > 3 log
IC50 (adult male S. mansoni [1]; [6]): 1.9 µM
Ki [3]: 0.00082 µM

C[C@H]1N=C(c2ccccc2F)c2cc(C#C[Si](C)(C)C)ccc2-n2cnc(-c3cnco3)c21 [GL-III-72]
Worms showing curl phenotype (adult male S. mansoni [2]; 10 micromolar): 5/8 curl at 10 micromolar

CCOC(=O)c1ncn2c1[C@H](C)N=C(c1ccccc1F)c1cc(C#C[Si](C)(C)C)ccc1-2 [SH-I-055]
Worms showing curl phenotype (adult male S. mansoni [2]; 5 micromolar): 4/8
Worms showing curl phenotype (adult male S. mansoni [2]; 10 micromolar): 8/8
Recovery of movement following drug washout (S. mansoni; 10 μM): recovering by 1 day after drug washout
Tegument ultrastructure (TEM) (S. mansoni tegument; 10 μM, overnight (14 hours)): normal tissue ultrastructure
IC50 (adult male S. mansoni [1]; [6]): 1.4 µM
Times less potent than XliHeII-048 (adult male S. mansoni [1]; movement IC50 comparison): ~ 3 times
Ki [3]: 1.7 µM

CCOC(=O)c1ncn2c1CN=C(c1ccccc1F)c1cc(C#C[Si](C)(C)C)ccc1-2 [XliHeII-048]
Worms showing curl phenotype (adult male S. mansoni [2]; 10 micromolar): 5/5
Recovery of movement following drug washout (S. mansoni; 10 μM): recovering by 1 day after drug washout
Tegument ultrastructure (TEM) (S. mansoni tegument; 10 μM, overnight (14 hours)): normal tissue ultrastructure
IC50 (adult male S. mansoni [1]): 0.54 µM
Ki [3]: 1.6 µM

O=C1CN=C(c2ccc(Cl)cc2)c2cc(Cl)ccc2N1 [GL-I-74]
Worms showing curl phenotype (adult male S. mansoni [2]; 10 micromolar): 1/8 curl at 10 micromolar

C[C@H]1N=C(c2ccccc2F)c2cc(C#C[Si](C)(C)C)ccc2NC1=O [GL-I-61]
Worms showing curl phenotype (adult male S. mansoni [2]; 10 micromolar): 3/8 curling at 10 micromolar

C[C@@H]1N=C(c2ccccc2F)c2cc([N+](=O)[O-])ccc2NC1=O [MYM-I-91A]
IC50 (adult male S. mansoni [1]; [6]): 7.2 µM
Ki [3]: 0.0121 µM

C[C@@H]1N=C(c2ccccc2Cl)c2cc([N+](=O)[O-])ccc2NC1=O [MCLZ, meclonazepam]
Effective anti-parasitic dose (schistosomes): 0.2 to 0.3 mg/kg
Recovery of movement following drug washout (S. mansoni; MCLZ): do not recover movement
Tegument ultrastructure (TEM) (S. mansoni tegument; 5 μM, overnight): pervasive vacuolization of the tegument
Bioavailability ([4]; MCLZ): orally bioavailable
Half-life ([4]; MCLZ): up to 80 hours
IC50 (adult male S. mansoni [1]): 0.16 µM
Activity against SmGluCl (SmGluCl): inactive
Dose at which sedation was reported [5]: above 0.3 mg/kg
Ki [3]: 0.0024 µM
Activity against S. japonicum (S. japonicum): inactive

CCOC(=O)c1ncn2c1CN(C)C(=O)c1cc(F)ccc1-2 [flumazenil]
Elimination half-life ([4]; flumazenil, administered by IV): < 1 h
Bioavailability ([4]; flumazenil): poor bioavailability

CCOC(=O)c1ncn2c1[C@H](C)N=C(c1ccccc1F)c1cc(Br)ccc1-2 [SH-I-48B]
Activity (curl phenotype) (adult male S. mansoni [2]; up to 100 micromolar): Inactive up to 100 micromolar
Potency at evoking coiled, contractile paralysis / activity against parasites (in words) (adult male S. mansoni [1]): dramatically decreased affinity

C#Cc1ccc2c(c1)C(c1ccccc1F)=N[C@@H](C)c1c(C(=O)OCC)ncn1-2 [SH-053-2’F-S-CH3]
Potency at evoking coiled, contractile paralysis / activity against parasites (in words) (adult male S. mansoni [1]): dramatically decreased affinity

O=C(C1CCCCC1)N1CC(=O)N2CCc3ccccc3C2C1 (centres unmarked) [PZQ, praziquantel]
Cure rates (schistosomiasis): 70–90%

CCOC(=O)c1ncn2c1CN=C(c1ccccc1)c1cc(C#C[Si](C)(C)C)ccc1-2 [Xhe-II-048]
Recovery of movement following drug washout (S. mansoni; 10 μM): did not recover movement up to one day
Tegument ultrastructure (TEM) (S. mansoni tegument; 10 μM, overnight (14 hours)): extensive vacuole distribution beneath the apical membrane
IC50 (adult male S. mansoni [1]): 0.85 µM
Ki [3]: 2.5 µM

C[C@@H]1N=C(c2ccccc2Cl)c2cc([N+](=O)[O-])ccc2N(C)C1=O [MYM-II-53]
IC50 (adult male S. mansoni [1]; [6]): > 50 µM
Ki [3]: 0.0041 µM

Brc1ccc2c(c1)C(c1ccccc1)=NCc1c(-c3cnco3)ncn1-2 [KRM-II-73]
Worms showing curl phenotype (adult male S. mansoni [2]; 10 micromolar): 2/8 curl at 10 micromolar

C[C@@H]1N=C(c2ccccc2)c2cc([N+](=O)[O-])ccc2NC1=O [MYM-I-88]
IC50 (adult male S. mansoni [1]; [6]): 26 µM
Ki [3]: 0.0764 µM

C#Cc1ccc2c(c1)C(c1ccccn1)=NCc1c(-c3ocnc3C)ncn1-2 [KRM-III-79]
Worms showing curl phenotype (adult male S. mansoni [2]; 10 micromolar): 5/8 curl at 10 micromolar
